The assay deals with T1, ACE (from rabbit lung) (Oryctolagus cuniculus, UniProt P12822).
T1 construct: ACE (from rabbit lung); purchased Sigma-Aldrich; host or cells: rabbit lung
T1 sequence (P12822 34-1310): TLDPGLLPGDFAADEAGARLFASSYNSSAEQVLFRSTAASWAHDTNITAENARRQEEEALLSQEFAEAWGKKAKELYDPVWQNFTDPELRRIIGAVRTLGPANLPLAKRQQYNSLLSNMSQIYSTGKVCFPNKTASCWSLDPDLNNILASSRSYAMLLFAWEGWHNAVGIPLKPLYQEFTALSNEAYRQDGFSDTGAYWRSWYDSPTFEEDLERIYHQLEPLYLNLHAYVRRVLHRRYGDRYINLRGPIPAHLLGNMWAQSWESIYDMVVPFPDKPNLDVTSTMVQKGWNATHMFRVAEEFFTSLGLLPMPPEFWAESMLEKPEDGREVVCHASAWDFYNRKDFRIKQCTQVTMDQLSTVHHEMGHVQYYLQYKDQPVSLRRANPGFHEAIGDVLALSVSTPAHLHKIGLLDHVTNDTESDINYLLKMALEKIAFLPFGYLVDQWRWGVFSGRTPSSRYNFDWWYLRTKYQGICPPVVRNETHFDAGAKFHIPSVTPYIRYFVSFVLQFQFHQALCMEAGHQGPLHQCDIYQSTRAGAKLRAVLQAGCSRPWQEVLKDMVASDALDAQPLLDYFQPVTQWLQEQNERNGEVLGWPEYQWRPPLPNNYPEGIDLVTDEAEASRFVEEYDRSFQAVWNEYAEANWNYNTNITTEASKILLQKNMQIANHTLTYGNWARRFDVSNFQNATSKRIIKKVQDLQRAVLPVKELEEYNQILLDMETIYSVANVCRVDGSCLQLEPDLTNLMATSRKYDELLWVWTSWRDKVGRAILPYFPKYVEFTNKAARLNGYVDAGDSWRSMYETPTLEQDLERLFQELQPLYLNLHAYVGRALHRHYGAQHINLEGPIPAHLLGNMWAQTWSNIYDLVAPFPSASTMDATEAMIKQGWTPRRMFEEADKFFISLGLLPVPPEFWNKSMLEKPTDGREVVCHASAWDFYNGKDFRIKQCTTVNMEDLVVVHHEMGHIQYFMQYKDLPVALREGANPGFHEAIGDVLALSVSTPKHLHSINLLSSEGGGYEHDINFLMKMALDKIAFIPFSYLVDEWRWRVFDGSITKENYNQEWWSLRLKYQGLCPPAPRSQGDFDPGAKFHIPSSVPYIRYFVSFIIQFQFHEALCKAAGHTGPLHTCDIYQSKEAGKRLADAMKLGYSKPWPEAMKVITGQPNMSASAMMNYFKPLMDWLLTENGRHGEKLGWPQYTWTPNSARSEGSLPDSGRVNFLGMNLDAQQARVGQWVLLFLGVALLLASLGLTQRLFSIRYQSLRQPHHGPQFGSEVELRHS
Kind of assay: on-chip ACE inhibition assay (FAPGG hydrolysis, absorbance decrease 340 nm). The class given is biochemical. As to the method:
To enhance the performance of the on-chip assay, experimental parameters such as concentrations of enzymes and substrates, substrate reaction time, and incubation time of samples and enzymes were stepwise optimized.
The optimized protocol was first applied to assess the quality of 11 batches of QSYQ intermediates (Table 1). Enzyme inhibition (in percentages) was employed as an indicator of drug quality and calculated according to the following equations: thrombin inhibition (%) = [1 − (AQSYQ/Ablank)] × 100; ACE inhibition (%) = [1 − (ΔAQSYQ/ΔAblank)] × 100; where AQSYQ and Ablank were the absorbance of the test sample and the blank sample after the enzymatic reaction (the background value was subtracted), and ΔAQSYQ and ΔAblank were the absorbance decrease between 0 min and 30 min of the samples.
Thrombin (from human plasma), ACE (from rabbit lung), FAPGG and captopril were purchased from Sigma-Aldrich (St. Louis, USA). […] AEBSF-HCl was purchased from Selleckchem (Houston, USA). Trizma base (Tris) was obtained from Sangon Biotech (Shanghai, China) and dimethyl sulfoxide (DMSO) from J&K Scientific (Beijing, China). All other chemicals were purchased from Sinopharm Chemical (Shanghai, China) unless otherwise indicated. 0.2 M Phosphate buffer (PB, pH 6.5), and 50 mM Tris-HCl buffer (200 mM NaCl, pH 8.3) were prepared as assay buffers for thrombin and ACE, respectively.
MBs (10 mg/mL) were diluted 10 times in PB or Tris-HCl buffer, and 10 μL of the diluted MBs (1 mg/mL) were injected into one channel of the chip using a syringe infusion pump (Harvard Apparatus, USA) and retained by an external magnet. Then, 10 μL of thrombin or ACE solution was added and incubated with MBs for two hours at room temperature to form enzyme-MB complexes. The magnet was manually controlled to move MBs back and forth to enhance the ratio of reaction. Subsequently, MBs were washed twice in assay buffer and magnetically transferred to the other channel through the fluidic bridge, whose opening and closing was controlled by a pneumatic valve. Next, 10 μL of sample solutions of tested drug and 10 μL of enzymatic substrate were sequentially infused to the channel by the pump and incubated with the enzyme. When the enzymatic reaction was finished, the MBs were retained in the channel, and air was injected into the channel from the inlet using a syringe to push all the reacted solution to a 384-well plate. […] Moreover, after detection, the reaction channel was washed three times by assay buffer to remove unbound constituents. 20 μL of 80% aqueous methanol was then injected and incubated with MBs for one hour to dissociate the bound constituents. The resulting solutions of replicates were combined, evaporated by a centrifugal evaporator, reconstituted in 80% aqueous methanol, centrifuged at 10,000 rpm for 10 min, and analyzed by LC-MS for chemical identification.

Structures are written as SMILES.

Turning to `O=C(O)C(O)Cc1ccc(O)c(O)c1` (centres unmarked) [Danshensu], the “ACE inhibition (in words)” value (at tested concentrations) was “showed ACE inhibitions”. The same molecule registered an inhibition rate (for ACE, maximum inhibition rate observed in the assay) of 64.2%.

The values are drawn from paper PMC5612938, “A multiple biomarker assay for quality assessment of botanical drugs using a versatile microfluidic chip” (Scientific Reports, 2017).
